The test system of one test is cells. Nature of the test: Growth inhibition by 8-Cl-AMP. The test is classed as cell-based. The following applies: as high as 100 μM.
Test [1] deals with MDA-MB-231. The experiment in a line: Growth of MDA-MB-231 cells (Tables 3, 10). The following applies: Homo sapiens, MDA-MB-231, 72 h, 3 days, control 100 (Table 3). It counts as cell-based. The method, then:
All breast cancer cell lines were grown in IMEM supplemented with 10% fetal bovine serum, HEPES 20 mM, penicillin-streptomycin, and extra glutamine. Colon carcinoma cell lines were grown in EMEM supplemented with 10% FBS, EMEM, NEAA, HEPES 20 mM, extra glutamine, and penicillin-streptomycin. The cells were grown at 37° C. in humidified incubators in an atmosphere of 5% CO2.
For cell growth experiments, 2-3×10^5 cells/60 mm dish were seeded, and 24 hours later (Day 0), the medium was removed, and fresh medium and the additives were added then and every 48 hours thereafter. The compounds of the present invention were added using 100X concentrated stock solutions. At desired times, cell counts in duplicate were performed on a Coulter counter after harvesting the cells with gentle trypsinization.

In test [2] the test system is breast (MCF-7) and colon (LS-174T) cancer cell lines. The experiment in a line: Growth inhibition of breast and colon cancer cells (Table 1). The test is classed as cell-based, human. The following applies: Homo sapiens. The gist of the method:
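MCF-7 and LS-174T cells seeded day −1, treated on day 0 and day 2; duplicate Coulter counts on days 3 and 4 after gentle trypsinization. Percent growth inhibition versus untreated controls from dose-response curves, averaged over ≥3 experiments.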

Test [3] has as its system four leukemic cell lines (HL-60, K-562, myc-K562, Molt-4). The experiment in a line: Growth inhibition of leukemic cell lines. It counts as cell-based, human. The following applies: Homo sapiens; leukemic cell lines, range.
The test system of a further test is HL-60. Nature of the test: Growth inhibition of leukemic cells (Table 12). The test is classed as cell-based. The following applies: Homo sapiens.
Test [4] relates to breast and colon cancer cells. The experiment in a line: Effect on cell morphology (FIG. 2). It counts as cell-based, human. The source says:
The photographs were taken on Day 4, ×160.
Furthermore, the synergistic growth inhibitory effect of C-6 and C-8 analogue combinations was also reflected in the change in the cell morphology.

For a further test, the system named is HL-60 Cells. Nature of the test: Cell cycle kinetics of HL-60 cells (Table 17). It counts as cell-based, human. As to conditions: 10 μM, 96 hours. The method, then:
Briefly, cells were fixed in 70% ethanol and stored at 4° C. before analysis. Nuclear DNA was stained with propidium iodide, 50 μg/ml in phosphate-buffered saline (pH 7.4), for 30 minutes at room temperature. RNase was added to avoid double-helix RNA staining. The DNA content of cells was analyzed by a FACScan flow cytometer coupled with a Hewlett-Packard computer. Cell cycle data analysis was performed by a Cell-FIT program according to the method of Dean (Cell Tissue Kinet. 13: 299-308 (1980)) (Becton Dickinson Immunocytometry Systems). Pulse area versus pulse width gating was performed to exclude doublets from the G2 -M region. For each sample, 20,000 events were stored in list mode. Cell surface antigen analysis was performed by flow cytometry with FACScan using a panel of monoclonal antibodies reactive with either monocytic or myeloid cells.

For test [5], the system named is MDA-MB-231. The experiment in a line: Cell cycle analysis by flow cytometry (Table 3). It counts as cell-based, human. As to conditions: 35 μM; 3 days. As to the method: DNA histograms were generated on FACS II by using the DNA intercalating dye propidium iodide as described by Braylan et al. in Cytometry 2: 337-343, 1982. The percentage of cells in each cycle phase was calculated by using a PDP-11/34 computer and software as described by Neckers et al., Mol. Cell. Biol. 6: 4244-4250, 1986.
Breast (MCF-7, MDA-MB-231) and colon (LS-174T) cancer cells in log
phase (untreated control) and 3 days after treatment with 8-C1-cAMP
(10 μM), N^6 -benzyl-cAMP (35 μM), and 8-Cl-adenosine (5
were analyzed for DNA content by flow cytometric analysis as described
below. Similar results were obtained with other breast and colon cancer

Test [6] relates to RI and RII cAMP receptor proteins, breast (MDA-MB-231) and colon (LS-174T) cancer cells. Nature of the test: cAMP receptor protein levels, breast and colon cancer cells (FIG. 6). It counts as cell-based, human. As to the method:
(§1) Photoactivated incorporation of 8-N3 [^32 P] was performed as described below.
(§2) M is marker proteins of known molecular weight.
The incubations were carried out at 23° C. for 60 minutes in 96-well immunoplates. […] The gels were fixed, dried, and exposed to X-ray films overnight.

Test [7] has as its system RI and RII cAMP receptor proteins, MDA-MB-231. Nature of the test: Photoaffinity labelling of cAMP receptor proteins (Table 10, FIG. 6). As to conditions: 3 days, 8-Cl and N^6-benzyl 10 μM, dibutyryl 1 mM. It counts as cell-based, human. As to the method: as §1, §2
(§3) Each lane contained 50 micrograms protein for SDS-PAGE.
(§4) The incubations were carried out at 23° C. for 60 minutes in 96-well immunoplates. The reaction mixtures were then irradiated for 30 seconds at 254 nm, placing a Mineralite UVS-11 hand lamp directly onto the plate. The samples were mixed with 25 microliters of 3× sample buffer (3% SDS, 15% beta-mercaptoethanol, 30 mM Tris, 30% glycerol, 1% bromophenol blue saturated solution), boiled for 3 minutes, and centrifuged at 700 × g for five minutes. The samples containing 10-30 micrograms of protein were subjected to 0.05% SDS-12% PAGE. The gels were fixed, dried, and exposed to X-ray films overnight. The protein concentrations were determined by the method of Lowry et al., J. Biol. Chem. 193: 265-275, 1951, with bovine serum albumin as standard.
(§5) The levels of the receptor proteins are expressed relative to the RI level in the untreated control cells of MDA-MB-231 and LS-174T which are each set equal to 1.0 O.D.; the scale was expanded to differentiate the lower intensity bands.

The subject of test [8] is RI and RII cAMP receptor proteins, LS-174T. The description is as above. It counts as cell-based, human. The following applies: 3 days, 8-Cl and N^6-benzyl 10 μM, dibutyryl 1 mM. As to the method: as §1, §2, §3, §4, §5
A further test relates to Molt-4. Nature of the test: Growth inhibition of leukemic cells (Table 12). It counts as cell-based, human. As to conditions: Homo sapiens, MOLT-4; read-out: Inhibition of Growth IC50, Molt-4.
For a further test, the system named is myc-K562. Nature of the test: Growth inhibition of leukemic cells (Table 12). The test is classed as cell-based. As to conditions: Homo sapiens.
The next test concerns K-562. The experiment in a line: Growth inhibition of leukemic cells (Table 12). The test is classed as cell-based. As to conditions: Homo sapiens, K562.
Test [9] deals with breast and colon cancer lines (MCF-7, T-47D, ZR-75-1, MCF-7ras, MDA-MB-231, BT-20, HBL-100, LS-174T, WiDr, HT-29). The experiment in a line: Growth inhibition of breast and colon cancer lines (FIG. 1). The test is classed as cell-based, human. The following applies: densitometry text.

We go through two molecules from patent US5843916A, “Cyclic amp analogues, individually and in pairs, to inhibit neoplastic cell growth” (priority 1994, dated 1998).

Usually inhibition stands for how much of the control response was suppressed. In general, IC50 refers to the concentration at which inhibition is half-maximal.

Read-outs that look alike come from different tables or passages of the source.

Take `Nc1ncnc2c1nc(Cl)n2[C@@H]1O[C@H](COP(=O)(O)O)[C@@H](O)[C@H]1O` [8-Cl-AMP]: the “growth inhibition” value in the test on cells is “no appreciable growth inhibition”.
The molecule `O=P1(O)OC[C@H]2O[C@@H](n3cnc4c(NCc5ccccc5)ncnc43)[C@H](O)[C@@H]2O1` [N^6 -benzyl-cAMP] gave an activity at 35 µM in the test with MDA-MB-231 [1] of 45%. For the same molecule, the inhibition at 50 µM in test [2] (72 h, 50 μM, day 3, average (range), read-out: % Growth Inhibition, Day 3) is 56%; in [2] (96 h, 50 μM, day 4, average (range), read-out: % Growth Inhibition, Day 4), 70%; in test [2] (50 micromolar, read-out: growth inhibition), 30 to 70%. Moreover, the concentration for half-maximal inhibition (IC50) in [3] was 10 to 30 µM; in the test with HL-60, 20 µM; in the test on Molt-4, 10 µM; with myc-K562, 30 µM; in the test with K-562, 27 µM. For the same molecule, the cell morphology entry in test [4] (0.5 μM alone, four days) is on record as “did not induce a change in the cell morphology”; in [4] (50 μM, three to four days) it was “induced the morphological change”. In the test on HL-60 Cells (control 8.3), the “% G2 M” value stood at 9.6%. For the same molecule, the “% G0-G1” value in the test with HL-60 Cells (control 45.7) was 44.4%. In addition, the “% S” value with HL-60 Cells (control 46) came out at 46%. In addition, the “% Cell Population in G1” value with MDA-MB-231 [5] is 60%. In addition, the “% Cell Population in G2M” value in the test with MDA-MB-231 [5] is on record as 15%. Besides, the “% Cell Population in S” value with MDA-MB-231 [5] turned out to be 25%. In addition, the “cell cycle phase distribution” value in the test with MDA-MB-231 [5] is on record as “not appreciably different”. Besides, the “decrease in the RI level” value in test [6] (densitometric tracings) is 70-80%. Besides, the “increase in the ratio of RII to RI” value in [6] (densitometric tracings) is on record as “two- to three-fold increase”. The “RI and RII receptor levels” value in test [6] (three days, FIG. 6) was “the cAMP receptor protein with a molecular weight of 52,000 increased appreciably with concomitant decrease of the 48,000 RI receptor protein”. Besides, the RII/RI in test [7] is recorded as 0.28; in test [8], 1.25. For the same molecule, the “relative level of RI” value is given as 0.25 ± 0.03 in test [7] (control RI = 1.0 O.D.) and 0.20 ± 0.02 in test [8] (control RI = 1.0 O.D.). Also, the “relative level of RII” value in test [7] (control RI = 1.0 O.D.) is listed as 0.07 ± 0.01; in test [8] (control RI = 1.0 O.D.), 0.25 ± 0.02. Further, the “growth inhibition of cancer lines” value in test [9] is given as 45-70%.
